From PMC7370999, “The Neighboring Subunit Is Engaged to Stabilize the Substrate in the Active Site of Plant Arginases” (Frontiers in Plant Science, 2020)

Legend:
AtARGAH1 [1] = target: T1, AtARGAH1 (Arabidopsis thaliana, UniProt P46637); test: X-ray crystal structure, […] A; type: binding; conditions: product of arginine hydrolysis before crystal growth (50 mM L-arginine, 50 mM L-glutamic acid); binuclear Mn2+; active site, completed by loop L2* of neighbouring subunit
T1 construct: gene ARGAH1; starts at codon 25 (signal peptide removed), ends at residue 342; N-terminal His6-tag cut by TEV (vector pMCSG68); E. coli BL21 Gold; hexamer, calculated 209 kDa
T1 sequence (P46637 25-342): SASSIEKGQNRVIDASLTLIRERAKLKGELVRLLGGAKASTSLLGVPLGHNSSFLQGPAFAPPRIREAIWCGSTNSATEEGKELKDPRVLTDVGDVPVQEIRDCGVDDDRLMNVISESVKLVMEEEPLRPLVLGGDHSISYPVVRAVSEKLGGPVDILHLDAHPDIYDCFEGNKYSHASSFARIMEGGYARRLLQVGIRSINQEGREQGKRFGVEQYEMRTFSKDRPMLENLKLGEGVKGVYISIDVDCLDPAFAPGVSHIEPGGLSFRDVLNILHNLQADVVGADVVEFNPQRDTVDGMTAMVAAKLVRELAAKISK

AtARGAH1 [2] = target: T1, AtARGAH1; test: turnover to ornithine during crystallization, seen in crystal structure; type: biochemical; conditions: 50 mM L-arginine in crystallization solution; Mn2+ enzyme
MtARGAH = target: T2, MtARGAH (Medicago truncatula, UniProt G7JFU5); test: as above; type: biochemical; conditions: 50 mM L-arginine in cocrystallization; Mn2+ enzyme
T2 construct: gene ARGAH; full-length, 338 residues incl. predicted 15-residue signal peptide; N-terminal His6-tag cut by TEV (vector pMCSG68); E. coli BL21 Gold; hexamer, theoretical 224 kDa
T2 sequence (G7JFU5 1-338): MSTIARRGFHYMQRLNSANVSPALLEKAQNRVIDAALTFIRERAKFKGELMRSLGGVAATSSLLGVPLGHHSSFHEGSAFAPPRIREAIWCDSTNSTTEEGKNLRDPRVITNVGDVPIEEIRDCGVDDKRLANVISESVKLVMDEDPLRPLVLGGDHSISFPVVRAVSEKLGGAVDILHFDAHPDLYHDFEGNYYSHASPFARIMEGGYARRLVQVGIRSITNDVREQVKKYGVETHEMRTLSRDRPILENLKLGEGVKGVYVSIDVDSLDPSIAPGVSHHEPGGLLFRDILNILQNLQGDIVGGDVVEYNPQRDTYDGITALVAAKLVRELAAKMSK

SMILES: NCCC[C@H](N)C(=O)O [ornithine]
- X-ray crystal structure, 2.25 A (AtARGAH1 [1]): Structures of AtARGAH1-ORN and MtARGAH-ORN with the reaction product, ornithine, were obtained

SMILES: N=C(N)NCCC[C@H](N)C(=O)O [L-arginine]
- turnover to ornithine during crystallization, seen in crystal structure (AtARGAH1 [2]): obtained as a result of in vitro arginine hydrolysis
- turnover to ornithine during crystallization, seen in crystal structure (MtARGAH): obtained as a result of in vitro arginine hydrolysis
